{"source": "the supplement of paper PMC6723410"}
{"test_system": "GUMC-403", "experiment": "viability at highest tested concentration (max response) relative to DMSO (% of DMSO control); higher = less cytotoxic", "settings": "library / dose series: MIPE library, 11-point 1:3 dilution; top concentration 13.4 µM; 48 h", "in_short": "(§1)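 Patient-derived GUMC-403 papilloma cells grown by conditional reprogramming were plated at 700/well in 5 μL F + Y medium in 1536-well plates and incubated overnight at 37 °C. They then received 23 nL of MIPE 4.0 compounds by pin tool (11-point 1:3 series) for 48 h. CellTiter-Glo luminescence was read on a ViewLux and normalised with DMSO wells as 100% and empty wells as 0%. The value is viability at the highest tested concentration relative to DMSO control.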"}
{"compound": "O.O.CCN1CCN(C(=O)N[C@H](C(=O)N[C@H]2[C@@H]3SC\\C(=C(/N3C2=O)C(O)=O)CSC4=NN=N[N]4C)C5=CC=C(O)C=C5)C(=O)C1=O", "viability": 130}
{"test_system": "GUMC-403", "experiment": "viability at highest tested concentration (max response) relative to DMSO (% of DMSO control); higher = less cytotoxic", "settings": "library / dose series: MIPE library, 11-point 1:3 dilution; top concentration 23 µM; 48 h", "in_short": "as §1"}
{"compound": "CC[C@H](/C=C/[C@@H](C)[C@H]1CC[C@H]2[C@@H]3CC=C4C[C@@H](O)CC[C@]4(C)[C@H]3CC[C@]12C)C(C)C", "viability": 104}
{"test_system": "GUMC-403", "experiment": "viability at highest tested concentration (max response) relative to DMSO (% of DMSO control); higher = less cytotoxic", "settings": "library / dose series: MIPE library, 11-point 1:3 dilution; top concentration 46.1 µM; 48 h", "in_short": "as §1"}
{"compound": "Cc1ccc2c(=O)c3cccc(CC(=O)O)c3oc2c1C", "viability": 6.71}
{"compound": "CC1=C(CC/C(C)=C/CCC2=CCC(C3=CC(=O)OC3O)OC2O)C(C)(C)CCC1", "note": "(stereo not given)", "viability": 99.7}
{"compound": "O=C(C[C@@H]1C/C=C\\CCC(=O)O[C@H](c2ccccc2)CNC1=O)NCc1ccc(Cl)cc1", "viability": 97.5}
{"compound": "CC1=CC=C(C=C1)\\C2=N\\C3=CC=C(Cl)C=C3OC2", "viability": 128}
{"compound": "NC(=O)C1CCCc2c1[nH]c1ccc(Cl)cc21", "note": "(stereo not given)", "viability": 96}
{"compound": "CCC(C)N(C)C(=O)c1cc2ccccc2c(-c2ccccc2Cl)n1", "note": "(stereo not given)", "viability": 96.7}
{"compound": "CCCCN(CCCC)CC(O)c1cc(Cl)cc2c1-c1ccc(Cl)cc1/C2=C/c1ccc(Cl)cc1", "note": "(stereo not given)", "viability": 104}
{"compound": "CO[C@@]12[C@H](COC(N)=O)C/3=C(N1C[C@@H]4N[C@H]24)/C(=O)/C(=C(N)\\C3=O)C", "viability": 77}
{"compound": "COC1=CC(=CC=C1)C2=CC=C(NC(=O)/C3=C(/CCC3)C(O)=O)C(=C2)F", "viability": 99.8}
{"compound": "C=CC1=C(C(=O)O)N2C(=O)[C@@H](NC(=O)/C(=N\\O)c3csc(N)n3)[C@H]2SC1", "viability": 130}
{"compound": "COC1=CC=C2CN(C)CC[C@@]34\\C=C/[C@H](O)C[C@@H]3OC1=C24", "viability": 122}
{"compound": "O=C(CC12CC3CC(CC(C3)C1)C2)Nc1cccc2nc(NCCNCCO)ccc12", "viability": 69.8}
{"compound": "CNCC(O)C(O)C(O)C(O)CO.O=C(O)c1ccc(-c2cc3cccnc3c(-c3ccc4nonc4c3)n2)cc1", "viability": 117}
{"compound": "CCOC(=O)[C@H](CCc1ccccc1)N[C@H]1CCc2ccccc2N(CC(=O)O)C1=O", "viability": 124}
{"compound": "Cc1c(O)cccc1C(=O)N[C@@H](CSc1ccccc1)[C@H](O)CN1C[C@H]2CCCC[C@H]2C[C@H]1C(=O)NC(C)(C)C", "viability": 126}
{"compound": "CN1C(=O)C(=C/2N(C(=O)N(C3CC3)C(=O)C2=C1/NC4=CC=C(I)C=C4F)C5=CC=CC(=C5)NC(C)=O)\\C", "viability": 87.7}
{"compound": "CC(C)C1CCC(C(=O)N[C@H](Cc2ccccc2)C(=O)O)CC1", "note": "(stereo not given in full)", "viability": 85.9}
{"compound": "Cc1cc2c(C(C)C)c(O)c(O)c(C=O)c2c(O)c1-c1c(C)cc2c(C(C)C)c(O)c(O)c(C=O)c2c1O", "viability": 77.1}
{"compound": "S=P(N1CC1)(N1CC1)N1CC1", "viability": 115}
{"compound": "Cc1n[nH]c(C)c1Cc1sc2c(c1C(=O)N1C[C@H](O)CO1)c(=O)n(C)c(=O)n2CC(C)C", "viability": 119}
{"compound": "COc1ccc(Nc2nccc(NCCO)n2)cc1", "viability": 99.9}
{"compound": "CCOC(=O)C/1=C(C)/NC(=S)NC1C2=CC=CC(=C2)O", "note": "(stereo not given)", "viability": 118}
{"compound": "CN1c2ccccc2C(=O)N2CCc3c([nH]c4ccccc34)C21", "note": "(stereo not given)", "viability": 102}
{"compound": "CC(=O)OCC(=O)[C@@]12OC(C)(C)O[C@@H]1C[C@H]3[C@@H]4C[C@H](F)C/5=C/C(=O)/C=C\\[C@]5(C)[C@@]4(F)[C@@H](O)C[C@]23C", "viability": 116}
{"compound": "NC/1=N/C(=O)N(/C=C1F)[C@H]2CS[C@H](CO)O2", "viability": 115}
{"compound": "O=C(Nc1cccnc1)N1CCC(Cc2cccc(Oc3ccc(C(F)(F)F)cn3)c2)CC1", "viability": 112}
{"compound": "CC\\1=C/C=C\\C=[N]1[Pt](N)(Cl)Cl", "viability": 136}
{"compound": "CN(C)/N=N/c1nc[nH]c1C(N)=O", "viability": 123}
{"compound": "Nc1ccc(C(=O)Nc2cccc(-c3nc(N4CCOCC4)c4oc5ncccc5c4n3)c2)cn1", "viability": 101}
{"compound": "O=C(O[C@H]1C[C@H]2CC[C@@H](C1)[N+]21CCCC1)C(O)(c1ccccc1)c1ccccc1.[Cl-]", "viability": 140}
{"compound": "CC1=C(/C=C/C(C)=C/C=C/C(C)=C/C(=O)O)C(C)(C)CCC1", "viability": 86.6}
{"compound": "CN1CCC(=C2c3ccccc3CCc3sccc32)CC1", "viability": 115}
{"compound": "COC(=O)[C@H](c1ccccc1Cl)N1CCc2sccc2C1", "viability": 124}
{"compound": "CCOC(=O)[C@H](CCc1ccccc1)N[C@@H](C)C(=O)N1CCC[C@H]1C(=O)O", "viability": 125}
{"compound": "CC1=C(/C=C/C(C)=C/C=C/C(C)=C\\C(=O)O)C(C)(C)CCC1", "viability": 90}
{"compound": "N#Cc1c(C2CCNCC2)cc(-c2c(O)cccc2OCC2CC2)nc1N", "viability": 103}
{"compound": "O=C(O)C1CCCN(CCC=C(c2ccccc2)c2ccccc2)C1", "note": "(stereo not given)", "viability": 102}
{"compound": "Nc1nc2ccc(OC(F)(F)F)cc2s1", "viability": 86.9}
